# Target: CD73 (Homo sapiens (Human), UniProt P21589)
# Assay: Biochemical assay: inhibition of CD73 activity (AMP hydrolysis, Malachite Green readout)
# Conditions: CD73 0.3208 nM, AMP 15 μM, 25 mM Tris-HCl pH 7.4, RT, absorbance 620 nm
# Outline: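 Phosphate from AMP hydrolysis (15 μM AMP, 10 min, RT) was detected by Malachite Green absorbance to give IC50s. Enzyme at 320 pM was first exposed 15 min to compounds, dosed from 100 μM in ½-log steps, in Tris pH 7.4 buffer with MgCl2, Brij-35 and BSA.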
# Sequence of CD73 (P21589 27-574): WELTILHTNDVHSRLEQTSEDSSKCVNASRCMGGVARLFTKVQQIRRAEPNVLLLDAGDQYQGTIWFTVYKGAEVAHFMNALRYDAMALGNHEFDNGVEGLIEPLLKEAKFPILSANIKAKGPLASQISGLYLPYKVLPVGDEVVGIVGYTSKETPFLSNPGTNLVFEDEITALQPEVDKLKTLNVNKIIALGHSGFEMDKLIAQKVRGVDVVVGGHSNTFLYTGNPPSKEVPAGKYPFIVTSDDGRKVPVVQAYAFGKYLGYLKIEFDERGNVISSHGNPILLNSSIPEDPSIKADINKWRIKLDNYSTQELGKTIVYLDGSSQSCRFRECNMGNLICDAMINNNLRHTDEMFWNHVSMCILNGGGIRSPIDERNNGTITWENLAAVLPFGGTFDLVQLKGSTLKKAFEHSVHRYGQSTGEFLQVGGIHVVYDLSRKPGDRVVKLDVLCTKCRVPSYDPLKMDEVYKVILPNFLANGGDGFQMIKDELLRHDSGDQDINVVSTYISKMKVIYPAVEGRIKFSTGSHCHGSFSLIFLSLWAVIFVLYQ
row,SMILES,IC50 [nM]
1,"C[C@@](CO)(OC[C@H]1O[C@@H](n2ncc3c(NC4CCCC4)nc(Cl)nc32)[C@H](O)[C@@H]1O)P(=O)(O)O [Example 63, ((R)-2-(((2R,3S,4R,5R)-5-(6-chloro-4-(cyclopentylamino)-1H-pyrazolo[3,4-d]pyrimidin-1-yl)-3,4-dihydroxytetrahydrofuran-2-yl)methoxy)-1-hydroxypropan-2-yl)phosphonic acid]",≤ 100
2,"CCC(OC[C@H]1O[C@@H](n2ncc3c(NC4CCCC4)nc(Cl)nc32)[C@H](O)[C@@H]1O)P(=O)(O)O (stereo partly drawn) [Example 14, (1-(((2R,3S,4R,5R)-5-(6-chloro-4-(cyclopentylamino)-1H-pyrazolo[3,4-d]pyrimidin-1-yl)-3,4-dihydroxytetrahydrofuran-2-yl)methoxy)propyl)phosphonic acid]",≤ 100
3,"COC[C@](C)(OC[C@H]1O[C@@H](n2ncc3c(NC4CCCC4)nc(Cl)nc32)[C@H](O)[C@@H]1O)P(=O)(O)O [Example 69, ((R)-2-(((2R,3S,4R,5R)-5-(6-chloro-4-(cyclopentylamino)-1H-pyrazolo[3,4-d]pyrimidin-1-yl)-3,4-dihydroxytetrahydrofuran-2-yl)methoxy)-1-methoxypropan-2-yl)phosphonic acid]",≤ 100
4,"CC(O)C(OC[C@H]1O[C@@H](n2ncc3c(NC4CCCC4)nc(Cl)nc32)[C@H](O)[C@@H]1O)P(=O)(O)O (stereo partly drawn) [Example 42, (1-(((2R,3S,4R,5R)-5-(6-chloro-4-(cyclopentylamino)-1H-pyrazolo[3,4-d]pyrimidin-1-yl)-3,4-dihydroxytetrahydrofuran-2-yl)methoxy)-2-hydroxypropyl)phosphonic acid]",≤ 100
5,"CC(OC[C@H]1O[C@@H](n2ncc3c(NC4CCCC4)nc(Cl)nc32)[C@H](O)[C@@H]1O)P(=O)(O)O (stereo partly drawn) [Example 5, (1-(((2R,3S,4R,5R)-5-(6-Chloro-4-(cyclopentylamino)-1H-pyrazolo[3,4-d]pyrimidin-1-yl)-3,4-dihydroxytetrahydrofuran-2-yl)methoxy)ethyl)phosphonic acid]",≤ 100
6,"O=P(O)(O)C(CO)(Cc1nn[nH]n1)OC[C@H]1O[C@@H](n2ncc3c(NC4CCCC4)nc(Cl)nc32)[C@H](O)[C@@H]1O (stereo partly drawn) [Example 84, (2-(((2R,3S,4R,5R)-5-(6-Chloro-4-(cyclopentylamino)-1H-pyrazolo[3,4-d]pyrimidin-1-yl)-3,4-dihydroxytetrahydrofuran-2-yl)methoxy)-1-hydroxy-3-(2H-tetrazol-5-yl)propan-2-yl)phosphonic acid]",≤ 100
7,"C[C@H](OC[C@H]1O[C@@H](n2ncc3c(NC4CCCC4)nc(Cl)nc32)[C@H](O)[C@@H]1O)P(=O)(O)O [Example 33, ((R)-1-(((2R,3S,4R,5R)-5-(6-chloro-4-(cyclopentylamino)-1H-pyrazolo[3,4-d]pyrimidin-1-yl)-3,4-dihydroxytetrahydrofuran-2-yl)methoxy)ethyl)phosphonic acid]",≤ 100
8,"C[C@@](CO)(OC[C@H]1O[C@@H](n2ncc3c(N[C@@H]4CCc5ccc(F)cc54)nc(Cl)nc32)[C@H](O)[C@@H]1O)P(=O)(O)O [Example 99, ((R)-2-(((2R,3S,4R,5R)-5-(6-chloro-4-(((R)-6-fluoro-2,3-dihydro-1H-inden-1-yl)amino)-1H-pyrazolo[3,4-d]pyrimidin-1-yl)-3,4-dihydroxytetrahydrofuran-2-yl)methoxy)-1-hydroxypropan-2-yl)phosphonic acid]",≤ 100
9,"O=P(O)(O)C(CO)OC[C@H]1O[C@@H](n2nnc3c(NC4CCCC4)cc(Cl)nc32)[C@H](O)[C@@H]1O (stereo partly drawn) [Example 60, (1-(((2R,3S,4R,5R)-5-(5-chloro-7-(cyclopentylamino)-3H-[1,2,3]triazolo[4,5-b]pyridin-3-yl)-3,4-dihydroxytetrahydrofuran-2-yl)methoxy)-2-hydroxyethyl)phosphonic acid]",≤ 100
10,"COCC(OC[C@H]1O[C@@H](n2ncc3c(NC4CCCC4)nc(Cl)nc32)[C@H](O)[C@@H]1O)P(=O)(O)O (stereo partly drawn) [Example 31, (1-(((2R,3S,4R,5R)-5-(6-chloro-4-(cyclopentylamino)-1H-pyrazolo[3,4-d]pyrimidin-1-yl)-3,4-dihydroxytetrahydrofuran-2-yl)methoxy)-2-methoxyethyl)phosphonic acid]",≤ 100

# The next lines start with the values.
row,IC50 [nM],SMILES
1,≤ 100,"CC(CO)(OC[C@H]1O[C@@H](n2ncc3c(N[C@@H]4CC[C@H]5CCC[C@H]54)nc(Cl)nc32)[C@H](O)[C@@H]1O)P(=O)(O)O (stereo partly drawn) [Example 133, (2-(((2R,3S,4R,5R)-5-(6-chloro-4-(((1R,3aR,6aR)-octahydropentalen-1-yl)amino)-1H-pyrazolo[3,4-d]pyrimidin-1-yl)-3,4-dihydroxytetrahydrofuran-2-yl)methoxy)-1-hydroxypropan-2-yl)phosphonic aci]"
2,≤ 100,"NC(=O)OC[C@](CO)(OC[C@H]1O[C@@H](n2ncc3c(NC4CCCC4)nc(Cl)nc32)[C@H](O)[C@@H]1O)P(=O)(O)O (racemic) [Example 216, rac-((R)-1-(carbamoyloxy)-2-(((2R,3S,4R,5R)-5-(6-chloro-4-(cyclopentylamino)-1H-pyrazolo[3,4-d]pyrimidin-1-yl)-3,4-dihydroxytetrahydrofuran-2-yl)methoxy)-3-hydroxypropan-2-yl)phosphonic acid]"
3,≤ 100,"CC(C)OC[C@](CO)(OC[C@H]1O[C@@H](n2ncc3c(NC4CCCC4)nc(Cl)nc32)[C@H](O)[C@@H]1O)P(=O)(O)O [Example 114, ((R)-2-(((2R,3S,4R,5R)-5-(6-chloro-4-(cyclopentylamino)-1H-pyrazolo[3,4-d]pyrimidin-1-yl)-3,4-dihydroxytetrahydrofuran-2-yl)methoxy)-1-hydroxy-3-isopropoxypropan-2-yl)phosphonic acid]"
4,≤ 100,"CC(COCC1CC1)(OC[C@H]1O[C@@H](n2ncc3c(NC4CCCC4)nc(Cl)nc32)[C@H](O)[C@@H]1O)P(=O)(O)O (stereo partly drawn) [Example 153, (2-(((2R,3S,4R,5R)-5-(6-chloro-4-(cyclopentylamino)-1H-pyrazolo[3,4-d]pyrimidin-1-yl)-3,4-dihydroxytetrahydrofuran-2-yl)methoxy)-1-(cyclopropylmethoxy)propan-2-yl)phosphonic acid]"
5,≤ 100,"O=C1CC(OC[C@H]2O[C@@H](n3ncc4c(NC5CCCC5)nc(Cl)nc43)[C@H](O)[C@@H]2O)(P(=O)(O)O)CO1 (mixture of isomers) [Example 186, rac-(3-(((2R,3S,4R,5R)-5-(6-chloro-4-(cyclopentylamino)-1H-pyrazolo[3,4-d]pyrimidin-1-yl)-3,4-dihydroxytetrahydrofuran-2-yl)methoxy)-5-oxotetrahydrofuran-3-yl)phosphonic acid]"
6,≤ 100,"CC(C)(O)C#Cc1nc(NC2CCCC2)c2cnn([C@@H]3O[C@H](COC(C)(CO)P(=O)(O)O)[C@@H](O)[C@H]3O)c2n1 (mixture of isomers) [Example 192, rac-(2-(((2R,3S,4R,5R)-5-(4-(cyclopentylamino)-6-(3-hydroxy-3-methylbut-1-yn-1-yl)-1H-pyrazolo[3,4-d]pyrimidin-1-yl)-3,4-dihydroxytetrahydrofuran-2-yl)methoxy)-1-hydroxypropan-2-yl)phosphonic acid]"
7,≤ 100,"C[C@@](CO)(OC[C@H]1O[C@@H](n2ncc3c(NC4CC5(CCC5)C4)nc(Cl)nc32)[C@H](O)[C@@H]1O)P(=O)(O)O [Example 126, ((R)-2-(((2R,3S,4R,5R)-5-(6-chloro-4-(spiro[3.3]heptan-2-ylamino)-1H-pyrazolo[3,4-d]pyrimidin-1-yl)-3,4-dihydroxytetrahydrofuran-2-yl)methoxy)-1-hydroxypropan-2-yl)phosphonic acid]"
8,≤ 100,"C[C@](CO)(OC[C@H]1O[C@@H](n2ncc3c(NC4CCCC4)nc(CO)nc32)[C@H](O)[C@@H]1O)P(=O)(O)O [Example 127, ((S)-2-(((2R,3S,4R,5R)-5-(4-(cyclopentylamino)-6-(hydroxymethyl)-1H-pyrazolo[3,4-d]pyrimidin-1-yl)-3,4-dihydroxytetrahydrofuran-2-yl)methoxy)-1-hydroxypropan-2-yl)phosphonic acid]"
9,≤ 100,"COC[C@@](Cc1nn[nH]n1)(OC[C@H]1O[C@@H](n2ncc3c(NC4CCCC4)nc(Cl)nc32)[C@H](O)[C@@H]1O)P(=O)(O)O (racemic) [Example 212, rac-((R)-2-(((2S,3R,4S,5S)-5-(6-chloro-4-(cyclopentylamino)-1H-pyrazolo[3,4-d]pyrimidin-1-yl)-3,4-dihydroxytetrahydrofuran-2-yl)methoxy)-1-methoxy-3-(2H-tetrazol-5-yl)propan-2-yl)phosphonic acid]"
10,≤ 100,"COCCOCC(COCCO)(OC[C@H]1O[C@@H](n2ncc3c(NC4CCCC4)nc(Cl)nc32)[C@H](O)[C@@H]1O)P(=O)(O)O (mixture of isomers) [Example 177, rac-(2-(((2R,3S,4R,5R)-5-(6-chloro-4-(cyclopentylamino)-1H-pyrazolo[3,4-d]pyrimidin-1-yl)-3,4-dihydroxytetrahydrofuran-2-yl)methoxy)-1-(2-hydroxyethoxy)-3-(2-methoxyethoxy)propan-2-yl)phosphonic acid]"
11,≤ 100,"COC[C@@H](OC[C@H]1O[C@@H](n2nnc3c(NC4CCCC4)cc(Cl)nc32)[C@H](O)[C@@H]1O)P(=O)(O)O [Example 161, ((S)-1-(((2R,3S,4R,5R)-5-(5-chloro-7-(cyclopentylamino)-3H-[1,2,3]triazolo[4,5-b]pyridin-3-yl)-3,4-dihydroxytetrahydrofuran-2-yl)methoxy)-2-methoxyethyl)phosphonic acid]"
12,≤ 100,"COC[C@H](OC[C@H]1O[C@@H](n2nnc3c(NC4CCCC4)cc(Cl)nc32)[C@H](O)[C@@H]1O)P(=O)(O)O [Example 157, ((R)-1-(((2R,3S,4R,5R)-5-(5-chloro-7-(cyclopentylamino)-3H-[1,2,3]triazolo[4,5-b]pyridin-3-yl)-3,4-dihydroxytetrahydrofuran-2-yl)methoxy)-2-methoxyethyl)phosphonic acid]"
